# Read-outs that look alike come from different tables or passages of the source.
# Test: Preliminary pharmacokinetics in trial 1403-0001 (Arm A D1 q3w, Arm B D1 D8 q4w)
# Format: in vivo, human
# Settings: for % AUCtz-∞ / AUC0-∞, norm / CL/F / Cmax, norm / AUC(0-inf) / Cmax / Vd/F / half-life: gMean; for Cmax, norm (gMean) / % AUCtz-∞ (gMean) / AUC0-∞, norm, gMean (gCV [%]) / CL/F (gMean): Arm A D1 q3w; for AUC(0-inf) / Cmax / Vd/F / half-life / Tmax: human, plasma, oral; for AUC(0-inf): read-out: AUC0-∞; for Cmax: read-out: Cmax; for Vd/F: read-out: Vz/F; for half-life: read-out: t1/2 (converted); for Tmax: median, read-out: tmax
# Description: Preliminary PK data were available from the first 45 treated patients in study 1403-0001. The exploratory PK analysis is based on planned blood sampling time-points and the results are subject to change because not all samples from these patients have been analyzed yet. Therefore, AUCs may be incomplete. In addition, information on the absorption, distribution, and elimination of the MDM2 antagonist of formula I are descriptive given the limited exploratory PK results available up to this point in time.
# Consequently the preliminary PK results support the dose selection of 45 mg (and alternatively even of 30 mg) combined with the once in three weeks (D1 q3w) dose regimen. The tmax of the MDM2 antagonist of formula I is generally between 4 and 6 hours after tablet intake.
# [1] = 5 mg, Day 1, D1 D8 q4w (Arm B), N=3
# [2] = 5 mg, Day 8, D1 D8 q4w (Arm B), N=3
# [3] = 10 mg, Day 1, D1 D8 q4w (Arm B), N=3
# [4] = 10 mg, Day 8, D1 D8 q4w (Arm B), N=3
# [5] = 15 mg, Day 1, D1 D8 q4w (Arm B), N=3
# [6] = 15 mg, Day 8, D1 D8 q4w (Arm B), N=2
# [7] = 20 mg, Day 1, D1 D8 q4w (Arm B), N=3
# [8] = 20 mg, Day 8, D1 D8 q4w (Arm B), N=3
# [9] = 30 mg, Day 1, D1 D8 q4w (Arm B), N=4
# [10] = 30 mg, Day 8, D1 D8 q4w (Arm B), N=3
# [11] = 45 mg, Day 1, D1 D8 q4w (Arm B), N=2
# [12] = 60 mg, Day 1, D1 D8 q4w (Arm B), N=2
smiles,measurement,setting,value
"Cc1c(C(=O)O)ccc2c3n(nc12)[C@@H]1[C@H](C3)N(CC2CC2)[C@@]2(C(=O)Nc3cc(Cl)ccc32)[C@H]1c1cccc(Cl)c1F [MDM2-antagonist of formula I, (2′S,3′S,3a'S,10a'S)-6-chloro-3′-(3-chloro-2-fluorophenyl)-1′-(cyclopropylmethyl)-6′-methyl-2-oxo-1,2,3′,3a′,10′,10a′-hexahydro-1′H-spiro[indole-3,2′-pyrrolo[2′,3′:4,5]pyrrolo[1,2-b]indazole]-7′-carboxylic acid]",% AUCtz-∞,[1],10.2%
same,"AUC0-∞, norm",[1],3530 nmol·h/L/mg
same,CL/F,[1],7.99 mL/min
same,"Cmax, norm",[1],51.9 nmol/L/mg
same,% AUCtz-∞,[2],30.2%
same,"AUC0-∞, norm",[2],3860 nmol·h/L/mg
same,CL/F,[2],7.31 mL/min
same,"Cmax, norm",[2],67.2 nmol/L/mg
same,% AUCtz-∞,[3],10.8%
same,"AUC0-∞, norm",[3],5230 nmol·h/L/mg
same,CL/F,[3],5.39 mL/min
same,"Cmax, norm",[3],63.8 nmol/L/mg
same,% AUCtz-∞,[4],31.6%
same,"AUC0-∞, norm",[4],4840 nmol·h/L/mg
same,CL/F,[4],5.82 mL/min
same,"Cmax, norm",[4],71.4 nmol/L/mg
same,% AUCtz-∞,[5],2.89%
same,"AUC0-∞, norm",[5],2520 nmol·h/L/mg
same,CL/F,[5],11.2 mL/min
same,"Cmax, norm",[5],55.4 nmol/L/mg
same,% AUCtz-∞,[6],14.8%
same,"AUC0-∞, norm",[6],1720 nmol·h/L/mg
same,CL/F,[6],16.4 mL/min
same,"Cmax, norm","15 mg, Day 8, D1 D8 q4w (Arm B), N=3",51.7 nmol/L/mg
same,% AUCtz-∞,[7],8.63%
same,"AUC0-∞, norm",[7],4440 nmol·h/L/mg
same,CL/F,[7],6.34 mL/min
same,"Cmax, norm",[7],68.4 nmol/L/mg
same,% AUCtz-∞,[8],25.9%
same,"AUC0-∞, norm",[8],3050 nmol·h/L/mg
same,CL/F,[8],9.22 mL/min
same,"Cmax, norm",[8],60.9 nmol/L/mg
same,% AUCtz-∞,[9],6.72%
same,"AUC0-∞, norm",[9],2660 nmol·h/L/mg
same,CL/F,[9],10.6 mL/min
same,"Cmax, norm",[9],48.0 nmol/L/mg
same,% AUCtz-∞,[10],18.9%
same,"AUC0-∞, norm",[10],2160 nmol·h/L/mg
same,CL/F,[10],13.0 mL/min
same,"Cmax, norm",[10],44.3 nmol/L/mg
same,% AUCtz-∞,[11],4.72%
same,"AUC0-∞, norm",[11],2150 nmol·h/L/mg
same,CL/F,[11],13.1 mL/min
same,"Cmax, norm",[11],51.7 nmol/L/mg
same,% AUCtz-∞,[12],7.08%
same,"AUC0-∞, norm",[12],1460 nmol·h/L/mg
same,CL/F,[12],19.3 mL/min
same,"Cmax, norm",[12],32.7 nmol/L/mg
same,"Cmax, norm","60 mg, Day 8, D1 D8 q4w (Arm B), N=2",31.5 nmol/L/mg
same,"Cmax, norm (gMean)","20 mg, N=2",58.2 nmol/L/mg
same,% AUCtz-∞ (gMean),"30 mg, N=3",24.6%
same,"AUC0-∞, norm, gMean (gCV [%])","30 mg, N=3",3760 (46.8) nmol*h/L/mg
same,CL/F (gMean),"30 mg, N=3",7.50 mL/min
same,"Cmax, norm (gMean)","30 mg, N=3",96.4 nmol/L/mg
same,% AUCtz-∞ (gMean),"45 mg, N=6",29.2%
same,"AUC0-∞, norm, gMean (gCV [%])","45 mg, N=6",3040 (53.6) nmol*h/L/mg
same,CL/F (gMean),"45 mg, N=6",9.28 mL/min
same,"Cmax, norm (gMean)","45 mg, N=6",60.2 nmol/L/mg
same,% AUCtz-∞ (gMean),"50 mg, N=4",19.7%
same,"AUC0-∞, norm, gMean (gCV [%])","50 mg, N=4",6280 (37.3) nmol*h/L/mg
same,CL/F (gMean),"50 mg, N=4",4.49 mL/min
same,"Cmax, norm (gMean)","50 mg, N=4",74.8 nmol/L/mg
same,% AUCtz-∞ (gMean),"60 mg, N=6",3.71%
same,"AUC0-∞, norm, gMean (gCV [%])","60 mg, N=6",2710 (33.4) nmol*h/L/mg
same,CL/F (gMean),"60 mg, N=6",10.4 mL/min
same,"Cmax, norm (gMean)","60 mg, N=7",54.5 nmol/L/mg
same,% AUCtz-∞ (gMean),"80 mg, N=2",2.54%
same,"AUC0-∞, norm, gMean (gCV [%])","80 mg, N=2",2570 (29.2) nmol*h/L/mg
same,CL/F (gMean),"80 mg, N=2",11.0 mL/min
same,"Cmax, norm (gMean)","80 mg, N=2",49.2 nmol/L/mg
same,AUC(0-inf),[1],17.6 µM·h
same,Cmax,[1],260 nM
same,Vd/F,[1],38.2 L
same,half-life,[1],55.3 h
same,Tmax,[1],4 h
same,AUC(0-inf),[2],19.3 µM·h
same,Cmax,[2],336 nM
same,Vd/F,[2],29.2 L
same,half-life,[2],46.2 h
same,Tmax,[2],4 h
same,AUC(0-inf),[3],52.3 µM·h
same,Cmax,[3],638 nM
